Results from US20170190726A9, “PRODRUG FOR RELEASE OF CISPLATIN AND CYCLOOXYGENASE INHIBITOR” (priority 2013, published 2017).

How the values were obtained:
PC3 cells [1] = experiment: Apoptosis detection by annexin V/PI assay; type: cell-based, Human; details: 25 μM, 6 h
Excerpt: High expression of COX-2 is found in various cancers, however, for PCa cell lines as well as tissue, contradictory results exist. We therefore tested anti-proliferative properties of Platin-A on androgen-responsive LNCaP and androgenunresponsive PC3 and DU145 PCa cells that differ in their malignant potentials. […] However, in LNCaP cells, Platin-A activity was better than an equimolar mixture of cisplatin and aspirin. In general, Pt(IV) compounds are less cytotoxic compared to their active Pt(II) form. […] To evaluate whether Platin-A-dependent inhibition of cancer cell proliferation is associated with apoptosis, Alexa Fluor® 488 annexin V/propidium iodide (PI) staining assay was carried out in PC3 cells and the data were analyzed by fluorescence assisted cell sorting. […]
PC3 cells were seeded at a density of 1×10^6 cells/mL on each well of a six well plate and allowed to grow overnight. […] Cell density was determined and cells were resuspended in 1× annexinVbinding buffer to 1×10^6 cells/mL preparing a sufficient volume to have 100 μL per assay. […] After the incubation period, 400 μL of 1× annexin-binding buffer was added to each sample, samples were gently mixed keeping the samples on ice, and the samples were analyzed on the flow cytometer immediately.

IL-6 = experiment: ELISA of IL-6 in LPS-stimulated RAW 264.7 macrophages; type: cell-based, mouse; details: for LPS-induced IL-6 production: preventive: pretreatment 10 μM 6 h, then LPS 12 h
Protocol: (§2) RAW 264.7 cells were plated at a concentration of 10,000 cells/mL in 96 plates and allowed to grow overnight. For preventative anti-inflammatory treatment, Platin-A (10 μM), aspirin (10 μM), cisplatin (10 μM) and an equimolar ratio of cisplatin and aspirin (10 μM each) was incubated with the RAW cells for 6 h. Lipopolysaccharide (LPS) (100 ng/mL) was added and the cells were further incubated for 12 h. For therapeutic anti-inflammatory treatment, LPS (100 ng/mL) was added to the RAW cells and incubated for 6 h. Platin-A (10 μM), aspirin (10 μM), cisplatin (10 μM) and an equimolar ratio of cisplatin and aspirin (10 μM each) was then added to the cells and incubated for 12 h. ELISA was performed on the supernatants against the cytokines interleukin (IL)-6, IL-10, and TNF-α. Briefly, antibody coated plates were blocked with 10% FBS in PBS for 1 h at room temperature followed by 3 washes. RAW cell supernatants were incubated on the plates for 2 h at room temperature. This was immediately followed by washings and sequential incubations with the cytokine-biotin conjugate and streptavidin working solution. Finally, the substrate reagent containing 3,3′,5,5′-tetramethylbenzidine (100 μL) was added to each well, incubated for 15 min, the reaction was stopped by adding 50 μL H2SO4 (0.1 M). The absorbance was recorded at 450 nm using a BioTek Synergy HT well plate reader.

TNF-α = experiment: ELISA of TNF-α in LPS-stimulated RAW 264.7 macrophages; type: cell-based, mouse; details: for LPS-induced TNF-α production: preventive: pretreatment 10 μM 6 h, then LPS 12 h
Protocol: as §2

PC3 cells [2] = experiment: MTT cytotoxicity assay in PC3 cells; type: cell-based, Human; details: 72 h
Protocol: (§1) Human prostate cancer cell lines LNCaP, PC3, and DU145 and RAW 264.7 macrophages were procured from the American type culture collection (ATCC). DU145 cells were grown at 37° C. in 5% CO2 in Eagle's minimum essential medium (EMEM) supplemented with 10% fetal bovine serum (FBS) and 1% penicillin/streptomycin. […] Cells were passed every 3 to 4 days and restarted from frozen stocks upon reaching pass number 20. The cytotoxic behaviors of cisplatin, aspirin, cisplatin+aspirin, and Platin-A were evaluated using the MTT assay against PC3, DU145, LNCaP, and RAW 264.7 cells. […] The cells were treated with different constructs at varying concentrations and incubated for 72 h at 37° C. except for RAW 264.7 macrophages. […] The cells were then treated with 20 μL of MTT (5 mg/mL in PBS) for 5 h. […] Each well was performed in triplicate. […] The IC50 values were reported at +95% confidence intervals.

DU145 cells = experiment: MTT cytotoxicity assay in DU145 cells; type: cell-based, Human; details: 72 h
Protocol: as §1

LNCaP cells = experiment: MTT cytotoxicity assay in LNCaP cells; type: cell-based, Human; details: 72 h
Protocol: as §1

[3] = therapeutic: LPS activated macrophages then 10 μM for 12 h

Structure (SMILES)	apoptosis induction (annexin V/PI) (PC3 cells [1])	LPS-induced IL-6 production (IL-6)	LPS-induced TNF-α production (TNF-α)	IC50 (PC3 cells [2]) [µM]	IC50 (DU145 cells) [µM]	IC50 (LNCaP cells) [µM]	levels of IL-6 (IL-6; [3])	levels of TNF-α (TNF-α; [3])
CC(=O)Oc1ccccc1C(=O)O [Aspirin, Acetylsalicylic acid]	did not show any changes in healthy PC3 populations	did not show any preventive action	did not show any preventive action	–	–	–	–	–
N.N.[Cl][Pt][Cl] [Cisplatin, Cis-diamminedichloroplatinum(II)]	–	did not show any preventive action	did not show any preventive action	14 ± 4	5 ± 2	15 ± 1	did not show any effect	did not show any effect
